# Key:
# [1] = test system: homologous passive cutaneous anaphylaxis (PCA) reaction; assay: Effect on homologous passive cutaneous anaphylaxis (PCA) reaction in rats; type: in vivo, rats (male wistar); settings: 50 mg/kg oral, 1 hour before challenge (TABLE 2); for inhibition in vivo at 50 mg/kg: Rattus norvegicus, po, 0.5 h
# Method: Effect on homologous passive cutaneous anaphylaxis (PCA) reaction in rats.
# This experimental animal model is caused by immediate type allergic reaction namely, antigen-antibody reaction. In the following, the method of this pharmacological test will be explained.
# Method: Male wistar rats (9 weeks old) were intradermally administered 0.05 ml of anti-serum against dinitrophenylated ascaris (DNP-As) into two sites on the shaved dorsal skin. 48 hours later, 7-glycosyloxybenzopyran derivatives (test compounds) suspended in 0.5% sodium carboxymethylcellulose (CMCNa) were given orally at a dose of 50 mg/kg to the animals. One hour after administration of Test compounds, the animals were induced anaphylaxis by injection of saline (1 ml) dissolving 5 mg of Evans Blue and 1 mg of Trinitrophenylated ascaris (TNP-As) into the tail vein of the animals. 30 minutes after induction of anaphylaxis, animals were anesthetized by ether and killed by bleeding, and were flayed dorsal skin. The determination of extravasated dye was performed according to the method of Katayama et al. (Microbiol. Immunol., Vol.22, P 89-101, 1978). As vehicle control group, only 0.5% CMCNa solution was administered orally, and as positive control group, Tranilast suspended in 0.5% CMCNa was administered orally at a dose of 100 mg/kg to the animals with the same method as the test compounds groups. Each experimental group consisted of 5 rats. [formula]
# [2] = test system: experimental asthma model (airway resistance); assay: Effect on experimental asthma model in guinea pigs (airway resistance); type: in vivo, guinea pigs (male hartley); settings: 50 mg/kg oral (TABLE 6); for inhibition in vivo at 50 mg/kg: Cavia porcellus, po, 0.5 h
# Method: Effect on experimental asthma model in guinea pigs
# The asthma is typical allergic disease and we carried out this pharmacological test by well known experimental asthma model in guinea pigs in order to comfirm that the compounds of the present invention suppress the asthma. In the following, the method of the pharmacological test will be explained.
# Method: Male hartley guinea pigs were immunized by intraperitoneal injection of saline (1ml) containing 5 mg of ovalbumine (OVA) three times at interval of one week. 2 weeks after final immunization, the animals were challenged by inhalation of 1% OVA-saline solution for 1 minute and then the airway resistance of the animals were measured for 30 minutes with PULMOS-1 (Medical Interface Project Station Inc.) after the inhalation. The compounds of the present invention (test compounds) suspended in 0.5% CMCNa were given orally at a dose of 50 mg/kg. As positive control group, Disodium Cromoglicate (DSCG), well known anti-allergic agent, in saline were injected at a dose of 20 mg/kg into the vein of the animals. As vehicle control group, only 0.5% CMCNa solution were given orally. The inhibition (%) of the airway resistance in vehicle control group was calculated according to equation 5 and the result was shown in TABLE 6. Each experimental group consisted of 5 guinea pigs. [formula]
# A: Maximum airway resistance in vehicle control group
# B: Maximum airway resistance in test compounds group or positive control group
# [3] = test system: contact dermatitis induced by picryl chloride; assay: Effect on contact dermatitis induced by picryl chloride in mice; type: in vivo; settings: 50 mg/kg oral, 1 hour before and 16 hours after challenge, 24 hours after challenge; for inhibition in vivo at 50 mg/kg: Mus musculus, po, 24 h, read-out: Inhibition (%) against the increase of ear thickness
# Method: Effect on contact dermatitis induced by picryl chloride in mice
# The delayed type hypersensitization is inhibited by steroid drugs,but can not be effected by known anti-allergic agents. In the following, the method of the pharmacological test will be explained.
# Method: Mice, shaved their abdominal skin on previous day, were immunized by applying 0.1 ml of acetone containing 7 mg of picryl chloride to the skin of the abdomen. 7 days after immunization, the thickness of the ear was measured with a dial thickness gauge, then mice were challenged by painting 5 μl of 1% picryl chloride olive oil solution to each side skin of left ear. 24 hours after challenge, the thickness of the left ear was measured again and the increase (%) of thickness was calculated according to equation 2. The compounds of the present invention (test compounds) suspended in 0.5% CMCNa were forcibly administered orally at a dose of 50 mg/kg at 1 hour before and 16 hours after challenge. As vehicle control group, only 0.5% CMCNa solution were administered orally, and as positive control group, Prednisolone, steroid hormone, and Tranilast were administered orally at the doses of 10 mg/kg and 100 mg/kg, respectively.
# Increase (%)=(A-B)/B×100 (Equation 2)
# A: thickness of the ear at 24 hours after challenge
# B: thickness of the ear before challenge
# Inhibition (%)=(C-D)/C×100 (equation 3)
# C: The increase (%) in vehicle control group
# D: The increase (%) in test compounds group or positive control group
SMILES,inhibition in vivo at 50 mg/kg [1] [%],inhibition in vivo at 50 mg/kg [2] [%],inhibition in vivo at 50 mg/kg [3] [%],Inhibition (%) of PCA reaction [1] [%],Inhibition (%) of the airway resistance [2] [%],Inhibition (%) against the increase of ear thickness [3] [%]
COc1c(O)c(=O)oc2cc(O[C@@H]3O[C@H](CO)[C@@H](O)[C@H](O)[C@H]3O)ccc12 [compound 109],42.1,53.1,43.8,–,–,–
CCCCOc1c(O)c(=O)oc2cc(O[C@@H]3O[C@H](CO)[C@@H](O)[C@H](O)[C@H]3O)ccc12 [compound 110],41.4,56.5,42.9,–,–,–
CCCCCCCCCCOc1c(O)c(=O)oc2cc(O[C@@H]3O[C@H](CO)[C@@H](O)[C@H](O)[C@H]3O)ccc12 [compound 111],43.1,61.3,41.2,–,–,–
CCCCCCCCCCCCOc1c(O)c(=O)oc2cc(O[C@@H]3O[C@H](CO)[C@@H](O)[C@H](O)[C@H]3O)ccc12 [compound 112],44.5,57.2,43.3,–,–,–
CC(C)Oc1c(O)c(=O)oc2cc(O[C@@H]3O[C@H](CO)[C@@H](O)[C@H](O)[C@H]3O)ccc12 [compound 113],40.3,56.6,45.5,–,–,–
CC1CCC(Oc2c(O)c(=O)oc3cc(O[C@@H]4O[C@H](CO)[C@@H](O)[C@H](O)[C@H]4O)ccc23)CC1 (stereo partly drawn) [compound 114],45.3,59.7,47.3,–,–,–
C=COc1c(O)c(=O)oc2cc(O[C@@H]3O[C@H](CO)[C@@H](O)[C@H](O)[C@H]3O)ccc12 [compound 115],42.2,53.1,40.2,–,–,–
CCC=CCCOc1c(O)c(=O)oc2cc(O[C@@H]3O[C@H](CO)[C@@H](O)[C@H](O)[C@H]3O)ccc12 [compound 116],46.1,62.8,44.4,–,–,–
CC(C)=CCC/C(C)=C/COc1c(O)c(=O)oc2cc(O[C@@H]3O[C@H](CO)[C@@H](O)[C@H](O)[C@H]3O)ccc12 [compound 117],40.3,49.4,42.3,–,–,–
O=c1oc2cc(O[C@@H]3O[C@H](CO)[C@@H](O)[C@H](O)[C@H]3O)ccc2c(OCc2ccccc2)c1O [compound 118],–,–,–,41.2,45.3,43.5
O=c1oc2cc(O[C@H]3O[C@H](CO)[C@@H](O)[C@H](O)[C@@H]3O)ccc2c(O)c1O [compound 130],–,–,–,40.1,40.2,41.2
COc1c(O)c(=O)oc2cc(O[C@H]3O[C@H](CO)[C@@H](O)[C@H](O)[C@@H]3O)ccc12 [compound 131],41.2,42.5,40.9,–,–,–
CCCCCCCCOc1c(O)c(=O)oc2cc(O[C@H]3O[C@H](CO)[C@@H](O)[C@H](O)[C@@H]3O)ccc12 [compound 132],42.9,50.1,43.2,–,–,–
CCCCCCCCCCOc1c(O)c(=O)oc2cc(O[C@H]3O[C@H](CO)[C@@H](O)[C@H](O)[C@@H]3O)ccc12 [compound 133],42.3,43.2,41.4,–,–,–

# Reference: patent US5580552A, “7-glycosyloxybenzopyran derivative and antiallergic agent containing the derivative as active ingredient” (priority 1994, dated 1996)
